Measured values from US20140235643A1, “NOVEL QUINOXALINE INHIBITORS OF PI3K” (GILEAD CALISTOGA LLC, priority 2011, published 2014).
pEC50, pIC50: −log10 of the molar value.

Key:
PI3Kβ (p110β/p85α) = biological target: T1, PI3Kβ (p110β/p85α) (Homo sapiens, UniProt P42338); assay: PI3K biochemical enzyme assay (Adapta universal kinase assay), p110 beta/p85 alpha; details: for pIC50: Table 2, PI3k biochemical assays, read-out: p110β/p85α IC50
T1 construct: purchased Invitrogen
Method: (§1) This example describes a method of obtaining in vitro activity data concerning the effect of compounds of on various PI3K isoforms. The effect of compounds on the kinase activity of Class I PI3Ks was measured at Invitrogen by using the Adapta® universal kinase assay. It was a homogenous, fluorescent based immunoassay for the detection of ADP produced by the kinase reaction. This assay can be divided into two phases: a kinase reaction phase, and an ADP detection phase. In the kinase reaction phase, all components required for the kinase reaction were added to the well, and the reaction was allowed to incubate for 60 minutes. After the reaction, a detection solution consisting of a europium labeled anti-ADP antibody, an Alexa Fluor® 647 labeled ADP tracer, and EDTA (to stop the kinase reaction) was added to the assay well. ADP formed by the kinase reaction (in the absence of an inhibitor) displaced the Alexa Fluor® 647 labeled ADP tracer from the antibody, resulting in a decrease in the TR-FRET signal.
(§2) ADP formation was determined by calculating the emission ratio from the assay well. The emission ratio was calculated by dividing the intensity of the tracer (acceptor) emission by the intensity of the Eu (donor) emission at 615 nm as shown in the equation below.
(§3) The Test Compounds were screened in 1% DMSO (final) in the well. All Substrate/Kinase Mixtures were diluted to a 2× working concentration in the appropriate Kinase Buffer as described below for the individual kinase:
The 2× p 110beta/p85 alpha/PIP2:PS mixture was prepared in 50 mM HEPES pH 7.5, 100 mM NaCl, 0.03% CHAPS, 1 mM EGTA, 3 mM mgCl2, and 2 mM DTT. The final 10 μL Kinase Reaction consisted of 35.4 ng p110 beta/p85 alpha and 50 μM PIP2:PS. After the 1 hour Kinase Reaction incubation, 5 μL of Detection Mix was added.
(§4) The Detection mix consisted of EDTA (30 mM), Eu-anti-ADP antibody (30 nM) and ADP tracer. All ATP Solutions were diluted to a 4× working concentration in water and used at the Km apparent concentrations for each individual kinase.

PI3Kα (p110α/p85α) = biological target: T2, PI3Kα (p110α/p85α) (Homo sapiens, UniProt P42336); assay: PI3K biochemical enzyme assay (Adapta universal kinase assay), p110 alpha/p85 alpha; details: for inhibition at 1 µM / inhibition at 10 µM: read-out: PI3Kα % inhib; for pIC50: Table 2, PI3k biochemical assays, read-out: p110α/p85α IC50
T2 construct: purchased Invitrogen
Method: as §1, §2, §3
(§5) The 2× p110 alpha/p85 alpha/PIP2:PS mixture was prepared in 50 mM HEPES pH 7.5, 100 mM NaCl, 0.03% CHAPS, 3 mM mgCl2, 1 mM EGTA. The final 10 μL Kinase Reaction consisted of 0.3-1.5 ng p110 alpha/p85 alpha and 50 μM PIP2:PS in 32.5 mM HEPES pH 7.5, 50 mM NaCl, 0.015% CHAPS, 1.5 mM mgCl2, 0.5 mM EGTA. After the 1 hour Kinase Reaction incubation, 5 μL of Detection Mix was added.
as §4

PI3Kγ = biological target: T3, PI3Kγ (Mus musculus, UniProt Q9JHG7); assay: PI3Kγ-dependent cell-based assay: C5a-mediated AKT phosphorylation in RAW-264 cells; set-up: species or system murine; details: C5a-induced AKT phosphorylation, RAW-264 macrophages
T3 construct: endogenous in cells; host or cells: RAW-264 macrophage cells (ATCC)
Method: PDGF-BB-induced AKT phosphorylation in Swiss-3T3 fibroblasts is mediated by p110α. C5a-induced AKT phosphorylation in RAW-264 murine macrophages is mediated exclusively by p110γ.
PI3Kγ-Dependent Cell-Based Assay: C5a-Mediated AKT Phosphorylation in RAW-264 Cells
RAW-264 macrophage cells (American Type Culture Collection) were cultured with Dulbecco's modified Eagle medium (DMEM) containing 10% fetal bovine serum and the antibiotics penicillin and streptomycin. Cells were seeded on a 96-well Tissue Culture Plate at 100,000 to 200,000 cells/well the day before the experiment. Next day, cells were starved for 2 hr in 0.1% FBS containing medium. The cells were pretreated with inhibitors or DMSO for 2 hr and stimulated for 5 min with 75 ng/ml C5a (R&D) at 37° C. in 5% CO2. The culture medium was removed and cells were fixed for 20 min at room temperature by addition of 100 μl of 4% cell fixing buffer to each well. AKT phosphorylation and total AKT was detected by ELISA.
Detection of Phospho-Ser-473 AKT and Total AKT by ELISA
The fixed cells were washed twice with 150 μl of wash buffer (WB) and quenched by incubating with 100 μl of Quenching Buffer for 20 min at room temperature. Cells were washed once with 150 μl WB and blocked by incubating with 100 μl of Blocking Buffer for 1 hr at room temperature. Cells were incubated with 50 μl of primary antibody diluted in Blocking Buffer, either phospho-Ser-473 AKT specific (1:150 dilution) or total-AKT antibody (1:200 dilution), to each specific well. The negative control wells contained 50 μl of Blocking Buffer. Plates were sealed with plate sealing film and incubated overnight at 4° C. Cells were washed twice with 150 μl WB followed by addition of 50 μl per well of DELFIA secondary antibody (50 ng/well, diluted in DELFIA Assay Buffer). After 2 hr incubation at room temperature, cells were washed 4 times with 150 μl of Europium Wash Solution followed by addition of 100 μl of DELFIA Enhancing Solution to each well. Plates were incubated for 5 min in the dark and fluorescent signal was read using SpectraMax M5™ (Molecular Devices). Total AKT level was determined to verify equal cell number per well. The average background fluorescence values from wells that received vehicle control in the absence of PDGF-BB or C5a were subtracted from all the values of experimental conditions. Fluorescence values corresponding to phosphorylated AKT from wells that received PDGF-BB or C5a were normalized to 100% and compound effect was plotted as % change relative to the vehicle control.

PI3Kδ (p110δ/p85α) = biological target: T4, PI3Kδ (p110δ/p85α) (Homo sapiens, UniProt O00329); assay: PI3K biochemical enzyme assay (Adapta universal kinase assay), p110 delta/p85 alpha; details: for inhibition at 0.1 µM / inhibition at 1 µM / inhibition at 10 µM: read-out: PI3Kδ % inhib; for pIC50: Table 2, PI3k biochemical assays, read-out: p110δ/p85α IC50
T4 construct: purchased Invitrogen
Method: as §1, §2, §3
as §5, with “p110 delta/p85” for “p110 alpha/p85”, “of 0.35-2.6” for “of 0.3-1.5”, “incubation, […]” for “incubation, 5”
as §4

T1 sequence (P42338 whole entry): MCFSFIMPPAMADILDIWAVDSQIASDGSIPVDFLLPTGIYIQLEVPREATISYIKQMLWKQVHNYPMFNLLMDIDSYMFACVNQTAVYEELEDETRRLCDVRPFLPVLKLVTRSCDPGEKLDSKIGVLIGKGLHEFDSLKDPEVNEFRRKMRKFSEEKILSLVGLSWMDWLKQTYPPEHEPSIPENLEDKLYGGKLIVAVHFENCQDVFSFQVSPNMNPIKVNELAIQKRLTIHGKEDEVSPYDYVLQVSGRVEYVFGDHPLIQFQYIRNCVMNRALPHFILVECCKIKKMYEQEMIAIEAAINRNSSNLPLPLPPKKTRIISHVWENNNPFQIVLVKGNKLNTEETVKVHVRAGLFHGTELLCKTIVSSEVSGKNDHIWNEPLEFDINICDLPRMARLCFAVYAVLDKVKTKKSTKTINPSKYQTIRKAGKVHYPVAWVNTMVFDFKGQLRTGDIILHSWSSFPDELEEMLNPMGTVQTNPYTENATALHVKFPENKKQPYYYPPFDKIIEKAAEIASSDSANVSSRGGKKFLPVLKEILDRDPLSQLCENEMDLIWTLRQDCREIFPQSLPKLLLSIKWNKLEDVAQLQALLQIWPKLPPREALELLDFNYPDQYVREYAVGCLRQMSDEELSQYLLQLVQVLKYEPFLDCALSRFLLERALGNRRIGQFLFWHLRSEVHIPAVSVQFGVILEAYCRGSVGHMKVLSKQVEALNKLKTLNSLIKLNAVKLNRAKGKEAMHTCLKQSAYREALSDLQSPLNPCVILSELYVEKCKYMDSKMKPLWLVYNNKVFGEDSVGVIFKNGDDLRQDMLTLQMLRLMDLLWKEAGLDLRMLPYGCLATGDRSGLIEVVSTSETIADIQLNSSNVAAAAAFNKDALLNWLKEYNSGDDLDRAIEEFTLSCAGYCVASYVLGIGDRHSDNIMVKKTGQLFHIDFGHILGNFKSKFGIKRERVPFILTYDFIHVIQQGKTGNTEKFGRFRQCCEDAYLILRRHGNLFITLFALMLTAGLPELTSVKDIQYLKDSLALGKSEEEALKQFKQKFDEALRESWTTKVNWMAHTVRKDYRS
T1 sequence (P27986 whole entry partner): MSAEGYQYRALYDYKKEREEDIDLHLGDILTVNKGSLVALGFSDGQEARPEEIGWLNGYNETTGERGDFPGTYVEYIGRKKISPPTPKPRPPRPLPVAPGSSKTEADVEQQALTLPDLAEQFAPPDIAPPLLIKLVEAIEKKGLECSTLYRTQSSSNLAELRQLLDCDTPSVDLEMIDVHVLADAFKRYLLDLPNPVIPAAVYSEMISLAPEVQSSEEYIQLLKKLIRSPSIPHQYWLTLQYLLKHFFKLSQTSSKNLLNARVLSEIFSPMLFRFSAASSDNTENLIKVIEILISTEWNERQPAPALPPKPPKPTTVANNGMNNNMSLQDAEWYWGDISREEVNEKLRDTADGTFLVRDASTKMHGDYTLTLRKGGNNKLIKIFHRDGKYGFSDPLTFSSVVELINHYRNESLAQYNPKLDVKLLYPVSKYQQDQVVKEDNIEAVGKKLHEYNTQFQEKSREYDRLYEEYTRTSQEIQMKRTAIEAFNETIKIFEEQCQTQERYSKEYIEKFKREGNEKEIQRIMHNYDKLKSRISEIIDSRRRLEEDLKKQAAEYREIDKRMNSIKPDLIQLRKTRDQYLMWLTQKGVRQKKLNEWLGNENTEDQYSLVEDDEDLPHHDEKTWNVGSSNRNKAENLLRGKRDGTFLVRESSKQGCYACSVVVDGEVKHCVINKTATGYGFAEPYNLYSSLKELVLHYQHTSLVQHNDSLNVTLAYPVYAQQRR
T2 sequence (P42336 whole entry): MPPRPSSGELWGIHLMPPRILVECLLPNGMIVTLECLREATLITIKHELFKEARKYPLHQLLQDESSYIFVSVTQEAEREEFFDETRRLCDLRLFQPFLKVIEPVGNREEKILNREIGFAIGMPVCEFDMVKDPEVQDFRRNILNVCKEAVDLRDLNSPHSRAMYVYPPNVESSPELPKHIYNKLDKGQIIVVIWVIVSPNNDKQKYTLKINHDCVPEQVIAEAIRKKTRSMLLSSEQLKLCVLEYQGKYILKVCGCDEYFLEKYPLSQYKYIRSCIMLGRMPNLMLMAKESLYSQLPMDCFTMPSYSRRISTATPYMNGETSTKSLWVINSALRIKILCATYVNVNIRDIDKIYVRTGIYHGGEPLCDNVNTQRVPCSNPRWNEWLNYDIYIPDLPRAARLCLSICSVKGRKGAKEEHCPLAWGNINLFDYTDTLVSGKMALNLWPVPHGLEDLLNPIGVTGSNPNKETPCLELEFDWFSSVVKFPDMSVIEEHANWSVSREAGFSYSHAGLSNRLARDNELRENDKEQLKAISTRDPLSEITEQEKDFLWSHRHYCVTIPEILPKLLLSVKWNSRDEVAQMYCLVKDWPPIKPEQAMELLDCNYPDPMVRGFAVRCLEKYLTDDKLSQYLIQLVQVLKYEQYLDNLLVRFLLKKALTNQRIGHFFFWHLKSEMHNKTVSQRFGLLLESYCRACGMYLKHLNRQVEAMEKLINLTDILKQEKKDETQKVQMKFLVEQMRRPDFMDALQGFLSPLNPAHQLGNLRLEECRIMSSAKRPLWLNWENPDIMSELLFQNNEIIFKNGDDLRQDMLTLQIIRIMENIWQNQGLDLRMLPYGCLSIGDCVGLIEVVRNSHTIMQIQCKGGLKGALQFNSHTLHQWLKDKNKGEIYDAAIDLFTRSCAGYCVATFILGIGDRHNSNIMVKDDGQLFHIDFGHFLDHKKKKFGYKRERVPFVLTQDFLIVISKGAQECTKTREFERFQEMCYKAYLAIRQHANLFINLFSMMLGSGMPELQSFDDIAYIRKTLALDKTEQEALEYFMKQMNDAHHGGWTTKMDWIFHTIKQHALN
T2 sequence (P27986 whole entry partner): as the sequence (P27986 whole entry partner) above
T3 sequence (Q9JHG7 whole entry): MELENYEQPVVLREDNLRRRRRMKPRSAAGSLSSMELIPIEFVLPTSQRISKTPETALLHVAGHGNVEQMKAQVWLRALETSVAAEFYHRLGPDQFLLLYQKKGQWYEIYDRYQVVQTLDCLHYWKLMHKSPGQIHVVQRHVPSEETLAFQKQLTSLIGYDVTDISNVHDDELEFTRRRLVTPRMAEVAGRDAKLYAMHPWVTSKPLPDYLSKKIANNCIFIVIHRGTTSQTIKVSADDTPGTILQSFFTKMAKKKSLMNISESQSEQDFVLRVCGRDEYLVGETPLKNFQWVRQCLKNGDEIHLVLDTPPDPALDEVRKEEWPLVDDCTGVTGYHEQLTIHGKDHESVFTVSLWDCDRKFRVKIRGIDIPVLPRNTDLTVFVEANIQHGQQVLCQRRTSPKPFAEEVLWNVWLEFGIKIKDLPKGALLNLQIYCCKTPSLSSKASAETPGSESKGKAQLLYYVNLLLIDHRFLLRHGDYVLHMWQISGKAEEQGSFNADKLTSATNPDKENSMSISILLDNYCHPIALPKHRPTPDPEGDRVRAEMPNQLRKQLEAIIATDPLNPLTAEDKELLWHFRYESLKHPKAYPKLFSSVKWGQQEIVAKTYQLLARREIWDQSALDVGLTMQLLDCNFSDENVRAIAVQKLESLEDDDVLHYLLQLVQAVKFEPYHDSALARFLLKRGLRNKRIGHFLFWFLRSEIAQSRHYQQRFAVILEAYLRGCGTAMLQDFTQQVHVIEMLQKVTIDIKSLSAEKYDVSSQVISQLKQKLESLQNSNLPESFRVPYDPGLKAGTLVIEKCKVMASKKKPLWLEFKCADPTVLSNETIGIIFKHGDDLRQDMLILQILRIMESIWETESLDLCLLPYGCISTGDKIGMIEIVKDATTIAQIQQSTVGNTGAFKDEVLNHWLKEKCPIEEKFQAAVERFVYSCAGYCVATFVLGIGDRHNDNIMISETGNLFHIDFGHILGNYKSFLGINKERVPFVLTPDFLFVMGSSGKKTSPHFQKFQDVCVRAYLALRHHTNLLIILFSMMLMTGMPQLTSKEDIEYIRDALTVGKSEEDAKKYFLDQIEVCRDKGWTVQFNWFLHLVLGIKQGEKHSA
T4 sequence (O00329 whole entry): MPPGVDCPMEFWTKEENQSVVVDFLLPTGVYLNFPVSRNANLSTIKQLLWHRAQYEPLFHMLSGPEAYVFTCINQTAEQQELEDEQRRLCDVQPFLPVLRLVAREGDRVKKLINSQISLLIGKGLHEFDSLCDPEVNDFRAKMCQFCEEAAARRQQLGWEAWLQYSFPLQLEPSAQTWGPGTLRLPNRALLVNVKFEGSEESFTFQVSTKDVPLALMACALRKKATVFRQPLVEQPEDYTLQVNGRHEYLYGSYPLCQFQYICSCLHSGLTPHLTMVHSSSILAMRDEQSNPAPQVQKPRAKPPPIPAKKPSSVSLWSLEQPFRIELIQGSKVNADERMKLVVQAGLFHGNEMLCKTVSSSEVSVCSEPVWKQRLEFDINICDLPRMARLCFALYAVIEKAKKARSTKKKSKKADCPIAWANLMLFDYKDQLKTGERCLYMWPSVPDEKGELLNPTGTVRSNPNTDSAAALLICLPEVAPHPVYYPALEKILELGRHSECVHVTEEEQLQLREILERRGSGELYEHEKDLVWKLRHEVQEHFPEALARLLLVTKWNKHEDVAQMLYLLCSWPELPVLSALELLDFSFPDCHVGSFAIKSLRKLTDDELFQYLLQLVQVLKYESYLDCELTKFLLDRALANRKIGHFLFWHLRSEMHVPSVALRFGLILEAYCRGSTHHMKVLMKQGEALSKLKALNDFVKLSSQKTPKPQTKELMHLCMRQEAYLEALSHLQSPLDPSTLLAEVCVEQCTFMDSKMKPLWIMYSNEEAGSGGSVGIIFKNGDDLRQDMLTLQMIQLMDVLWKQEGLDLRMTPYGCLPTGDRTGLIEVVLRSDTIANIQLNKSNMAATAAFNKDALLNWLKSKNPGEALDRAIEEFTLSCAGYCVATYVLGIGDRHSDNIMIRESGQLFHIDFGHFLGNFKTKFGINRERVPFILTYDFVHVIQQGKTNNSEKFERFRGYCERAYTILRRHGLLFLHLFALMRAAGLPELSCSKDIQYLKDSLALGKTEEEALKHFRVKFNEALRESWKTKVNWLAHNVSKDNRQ
T4 sequence (P27986 whole entry partner): as the sequence (P27986 whole entry partner) above

SMILES | inhibition at 10 µM (PI3Kβ (p110β/p85α); read-out: PI3Kβ % inhib) | pIC50 (PI3Kβ (p110β/p85α)) | inhibition at 1 µM (PI3Kα (p110α/p85α)) | inhibition at 10 µM (PI3Kα (p110α/p85α)) | pIC50 (PI3Kα (p110α/p85α)) | pEC50 (PI3Kγ) | inhibition at 0.1 µM (PI3Kδ (p110δ/p85α)) | inhibition at 1 µM (PI3Kδ (p110δ/p85α)) | inhibition at 10 µM (PI3Kδ (p110δ/p85α)) | pIC50 (PI3Kδ (p110δ/p85α)) | inhibition at 1 µM (PI3Kβ (p110β/p85α); 1 μM, read-out: PI3Kβ % inhib)
Cc1cccc2nc(C(C)Nc3nc(N)nc4[nH]cnc34)c(-c3ccccc3)nc12 (stereo not drawn) [Compound Q4] | 77% | 5.95 | 18% | 92% | 5.59 | 6.46 | 77% | 86% | 100% | 8.70 | –
CCC(Nc1ncnc2[nH]cnc12)c1nc2cccc(F)c2nc1-c1ccccc1 (stereo not drawn) [Compound Q9] | 60% | < 5.00 | – | 72% | < 5.00 | < 4.70 | 72% | 86% | 100% | 7.43 | –
CCC(Nc1ncnc2[nH]cnc12)c1nc2ccccc2nc1-c1ccccc1 (stereo not drawn) [Compound Q12] | 75% | < 5.00 | – | 77% | < 5.00 | < 4.70 | 71% | 83% | 100% | 7.77 | –

Second part, the molecule after the results:

inhibition at 10 µM (PI3Kβ (p110β/p85α); read-out: PI3Kβ % inhib) | pIC50 (PI3Kβ (p110β/p85α)) | inhibition at 1 µM (PI3Kα (p110α/p85α)) | inhibition at 10 µM (PI3Kα (p110α/p85α)) | pIC50 (PI3Kα (p110α/p85α)) | pEC50 (PI3Kγ) | inhibition at 0.1 µM (PI3Kδ (p110δ/p85α)) | inhibition at 1 µM (PI3Kδ (p110δ/p85α)) | inhibition at 10 µM (PI3Kδ (p110δ/p85α)) | pIC50 (PI3Kδ (p110δ/p85α)) | inhibition at 1 µM (PI3Kβ (p110β/p85α); 1 μM, read-out: PI3Kβ % inhib) | SMILES
72% | < 5.00 | 18% | 89% | 5.16 | 5.34 | 74% | 85% | 100% | 7.85 | – | CC(Nc1ncnc2[nH]cnc12)c1nc2ccccc2nc1-c1ccccc1 (stereo not drawn) [Compound Q1]
8% | < 5.00 | – | 47% | < 5.00 | < 4.70 | 20% | 82% | 100% | 7.24 | – | CC(Nc1ncnc2[nH]cnc12)c1nc2ccccc2nc1-c1cc(F)cc(F)c1 (stereo not drawn) [Compound Q2, N-{1-[3-(3,5-difluorophenyl)quinoxalin-2-yl]ethyl}-9H-purin-6-amine]
25% | < 5.00 | – | 65% | < 5.00 | < 4.70 | 48% | 86% | 100% | 7.44 | – | Cc1cccc(-c2nc3ccccc3nc2C(C)Nc2ncnc3[nH]cnc23)c1 (stereo not drawn) [Compound Q3]
85% | 6.34 | 41% | 97% | 6.39 | 6.20 | – | 69% | 99% | 8.70 | 23% | Cc1cccc2nc(C(C)Nc3nc(N)nc4[nH]cnc34)c(-c3ccc(F)cc3)nc12 (stereo not drawn) [Compound Q5]
